# Assay results: US20210386367A1, “DEVICES AND SYSTEMS FOR GASTROINTESTINAL MICROBIOME DETECTION AND MANIPULATION” (Progenity, Inc., priority 2018, published 2021)
# Key:
# [1] = system: E. coli spontaneous mutants; settings: E. coli ATCC 25922; CLSI QC range shown in parentheses; cited from earlier work
# [2] = system: E. coli spontaneous mutants; assay: Broth microdilution MIC of spontaneous mutants; assay type: cell-based, Escherichia coli
# Procedure: (§1) Select isolates were subcultured onto agar containing drug at the selection concentration, were identified by MALDI, and were frozen for broth microdilution MIC testing as described below.
# (§2) To determine whether colonies growing on drug selection plates had elevated MIC values to the selecting antibiotic, susceptibility testing by broth microdilution was conducted on isolated mutants following methodology recommended by CLSI (1), (2), and (3) “Performance Standards for Antimicrobial Susceptibility Testing; Twenty-Eighth Informational Supplement.,” CLSI document M100-S28, 2018.
# (§3) All wells in columns 2 through 12 of a standard 96-well microdilution plate (Costar 3795) were filled with 150 μL of the appropriate diluent. Then, 300 μL of the test agents were added to the wells of column 1 of the plates at […] the highest final concentration to be tested. Serial two-fold dilutions were made across the rows through column 11 using the Biomek 2000. The wells of column 12 contained no drug and served as the growth control wells. This plate served as the “mother plate” from which selected MIC assay plates or “daughter plates” were made.
# (§4) 2 μL of drug solution from each well of a mother plate was added to each corresponding well of the daughter plate in a single step. A standardized inoculum of each aerobic test organism was prepared per CLSI methods to equal a 0.5 McFarland standard, followed by a dilution of 1:20 in MHB II. The plates were then inoculated with 10 μL of the diluted inoculum using the Biomek 2000 from low to high drug concentration, resulting in a final concentration of approximately 5×10^5 CFU/mL. An un-inoculated plate was incubated for the purpose of assessing solubility of the drug in the test media.
# (§5) The plates for the aerobic tests were stacked 3-4 high, covered with a sterile lid on the top plate, and incubated aerobically at 35° C. for 18-20 hr. The MIC was recorded as the lowest concentration of drug that inhibited visible growth of the organism.
# [3] = system: Streptococcus spp. spontaneous mutants; assay: organism not typed; assay type: cell-based
# Procedure: as §1, §2, §3, §4, §5
# [4] = system: Streptococcus spp. spontaneous mutants; settings: S. pneumoniae ATCC 49619; CLSI QC range shown in parentheses; cited from earlier work
# [5] = in vivo, po, 10 mg/kg; cited from earlier work
# [6] = system: SIBO Bacteria; settings: cited from earlier work
# [7] = system: B. vulgatus ATCC 8482; assay: Broth microdilution MIC (time-kill study); assay type: cell-based, Bacteroides vulgatus; settings: Phocaeicola vulgatus, ATCC8482; B. vulgatus ATCC 8482; read-out: MIC
# [8] = system: S. pyogenes ATCC 49399; assay: Broth microdilution MIC (time-kill study); assay type: cell-based, Streptococcus pyogenes; settings: Streptococcus pyogenes, ATCC49399; S. pyogenes ATCC 49399; read-out: MIC
# [9] = system: B. fragilis ATCC 25285; settings: B. fragilis MMX 123 ATCC 25285; cited from earlier work
# [10] = system: E. coli ATCC 35218 (TEM-1 β-lactamase producer); assay: Broth microdilution MIC (time-kill study); assay type: cell-based, Escherichia coli; settings: Escherichia coli, ATCC35218
# [11] = system: E. coli ATCC 25922; assay: Broth microdilution MIC (time-kill study); assay type: cell-based, Escherichia coli; settings: Escherichia coli, ATCC25922; E. coli ATCC 25922; read-out: MIC
# [12] = system: S. agalactiae ATCC 13813; assay: Broth microdilution MIC (time-kill study); assay type: cell-based, Streptococcus agalactiae; settings: Streptococcus agalactiae, ATCC13813
# [13] = system: Clostridium spp.; assay: Agar dilution MIC, 10 clinical isolates; assay type: cell-based
# [14] = system: E. coli MMX 1312; assay: Broth microdilution MIC (time-kill study); assay type: cell-based, Escherichia coli; settings: Escherichia coli, MMX1312; E. coli MMX 1312; read-out: MIC
# [15] = system: S. pneumoniae ATCC 49619; assay: Broth microdilution MIC (time-kill study); assay type: cell-based, Streptococcus pneumoniae; settings: Streptococcus pneumoniae, ATCC49619; S. pneumoniae ATCC 49619; read-out: MIC
# [16] = system: B. fragilis ATCC 25285; assay: Broth microdilution MIC (time-kill study); assay type: cell-based, Bacteroides fragilis; settings: Bacteroides fragilis, ATCC25285; B. fragilis MMX 123 ATCC 25285; read-out: MIC
# [17] = system: B. ovatus MMX 3503; assay: Broth microdilution MIC (time-kill study); assay type: cell-based, Bacteroides ovatus; settings: Bacteroides ovatus, MMX3503; B. ovatus MMX 3504 (so in the source); read-out: MIC
compound,measurement,setting,value
CN(C)[C@@H]1C(O)=C(C(N)=O)C(=O)[C@@]2(O)C(O)=C3C(=O)c4c(O)cccc4[C@@](C)(O)[C@H]3C[C@@H]12 [TET],"MIC, CLSI QC range",[1],(0.5-2) μg/mL
same,MIC,"[2]; E. coli ATCC 25922, selected on rifaximin 4X MIC, Colony A",0.5 µg/mL
same,MIC,"[2]; E. coli ATCC 25922, selected on rifaximin 4X MIC, Colony B",1 µg/mL
same,MIC,"[2]; E. coli ATCC 25922, selected on rifaximin 8X MIC, Colony A",1 µg/mL
same,MIC,"[2]; E. coli ATCC 25922, selected on rifaximin 8X MIC, Colony B",1 µg/mL
same,MIC,[2]; E. coli ATCC 25922 Parent (Table 52),1 µg/mL
same,MIC,"[2]; E. coli ATCC 35218, selected on rifaximin 4X MIC, Colony A",2 µg/mL
same,MIC,"[2]; E. coli ATCC 35218, selected on rifaximin 4X MIC, Colony B",1 µg/mL
same,MIC,"[2]; E. coli ATCC 35218, selected on rifaximin 8X MIC, Colony A",0.5 µg/mL
same,MIC,"[2]; E. coli ATCC 35218, selected on rifaximin 8X MIC, Colony B",2 µg/mL
same,MIC,[2]; E. coli ATCC 35218 Parent (Table 52),1 µg/mL
same,MIC,"[2]; E. coli MMX 1312, selected on ceftriaxone 4X MIC, Colony A",>16 µg/mL
same,MIC,"[2]; E. coli MMX 1312, selected on ceftriaxone 4X MIC, Colony B",>16 µg/mL
same,MIC,"[2]; E. coli MMX 1312, selected on ceftriaxone 4X MIC, Colony C",>16 µg/mL
same,MIC,"[2]; E. coli MMX 1312, selected on ceftriaxone 8X MIC, Colony A",>16 µg/mL
same,MIC,"[2]; E. coli MMX 1312, selected on ceftriaxone 8X MIC, Colony B",>16 µg/mL
same,MIC,"[2]; E. coli MMX 1312, selected on ceftriaxone 8X MIC, Colony C",>16 µg/mL
same,MIC,"[2]; E. coli MMX 1312, selected on rifaximin 4X MIC, Colony A",>16 µg/mL
same,MIC,"[2]; E. coli MMX 1312, selected on rifaximin 4X MIC, Colony B",>16 µg/mL
same,MIC,"[2]; E. coli MMX 1312, selected on rifaximin 8X MIC, Colony A",>16 µg/mL
same,MIC,"[2]; E. coli MMX 1312, selected on rifaximin 8X MIC, Colony B",>16 µg/mL
same,MIC,[2]; E. coli MMX 1312 Parent,>16 µg/mL
same,MIC,[2]; E. coli MMX 1312 Parent (Table 49),>16 µg/mL
same,MIC,[2]; E. coli MMX 1312 Parent (Table 52),>16 µg/mL
same,MIC,"[2]; E. coli MMX 1312 mutant selected on meropenem 4X MIC, colony A",>16 µg/mL
same,MIC,"[2]; E. coli MMX 1312 mutant selected on meropenem 4X MIC, colony B",>16 µg/mL
same,MIC,"[2]; E. coli MMX 1312 mutant selected on meropenem 4X MIC, colony C",4 µg/mL
same,MIC,"[2]; E. coli MMX 1312 mutant selected on meropenem 8X MIC, colony A",>16 µg/mL
same,MIC,"[2]; E. coli MMX 1312 mutant selected on meropenem 8X MIC, colony B",>16 µg/mL
same,MIC,"[2]; E. coli MMX 1312 mutant selected on meropenem 8X MIC, colony C",>16 µg/mL
same,MIC,"[3]; S. agaloctiae ATCC 13813, selected on rifaximin 4X MIC, Colony A",0.12 µg/mL
same,MIC,"[3]; S. agaloctiae ATCC 13813, selected on rifaximin 4X MIC, Colony B",0.12 µg/mL
same,MIC,"[3]; S. agaloctiae ATCC 13813, selected on rifaximin 8X MIC, Colony A",0.12 µg/mL
same,MIC,"[3]; S. agaloctiae ATCC 13813, selected on rifaximin 8X MIC, Colony B",0.25 µg/mL
same,MIC,[3]; S. agaloctiae ATCC 13813 Parent,0.12 µg/mL
same,MIC,"[3]; S. pneumoniae ATCC 49619, selected on rifaximin 4X MIC, Colony A",0.06 µg/mL
same,MIC,"[3]; S. pneumoniae ATCC 49619, selected on rifaximin 4X MIC, Colony B",0.06 µg/mL
same,MIC,"[3]; S. pneumoniae ATCC 49619, selected on rifaximin 8X MIC, Colony A",0.06 µg/mL
same,MIC,"[3]; S. pneumoniae ATCC 49619, selected on rifaximin 8X MIC, Colony B",0.06 µg/mL
same,MIC,[3]; S. pneumoniae ATCC 49619 Parent,0.12 µg/mL
same,MIC,"[3]; S. pyogenes ATCC 49399, selected on rifaximin 4X MIC, Colony A",0.12 µg/mL
same,MIC,"[3]; S. pyogenes ATCC 49399, selected on rifaximin 4X MIC, Colony B",0.12 µg/mL
same,MIC,"[3]; S. pyogenes ATCC 49399, selected on rifaximin 8X MIC, Colony A",0.12 µg/mL
same,MIC,"[3]; S. pyogenes ATCC 49399, selected on rifaximin 8X MIC, Colony B",0.12 µg/mL
same,MIC,[3]; S. pyogenes ATCC 49399 Parent,0.12 µg/mL
same,"MIC, CLSI QC range",[4],(0.06-0.5) μg/mL
C[C@@H](O)[C@H]1C(=O)N2C(C(=O)O)=C(S[C@@H]3CN[C@H](C(=O)Nc4cccc(C(=O)O)c4)C3)[C@H](C)[C@H]12 [ertapenem],Rat oral exposure (Dose),[5],0.39 μM*h at 10
same,activity against SIBO organisms,[6],active against SIBO organisms
"Cc1ncc([N+](=O)[O-])n1CCO [metronidazole, Metronidazole]",MIC,[7],0.5 µg/mL
same,MIC,[8],> 32 µg/mL
same,CLSI QC range (MIC),[9],(0.25-2) μg/mL
same,MIC,[10],> 32 µg/mL
same,MIC,[11],> 32 µg/mL
same,MIC,[12],> 32 µg/mL
same,relative activity among drugs tested,[13],meropenem and metronidazole had similar activity
same,MIC,[14],> 32 µg/mL
same,MIC,[15],> 32 µg/mL
same,MIC,[16],0.5 µg/mL
same,MIC,[17],0.5 µg/mL
